The text below walks through data of patent US4132737A, “Trifluoromethyl substituted 1-aminoindanes” (Eli Lilly and Company, priority 1978, dated 1979).

Structures are written as SMILES. Where a name gives a salt, the structure may show the parent alone.

The test system of one series is catechol amine uptake. Conditions: literature statement, no figures; cited from earlier work.
The target in series [1] is T1, norephineprine N-methyl transferase (Oryctolagus cuniculus, UniProt G1TT82).
T1 construct: employing NMT from rabbit adrenals; from tissue; host or cells: rabbit adrenals
T1 sequence (G1TT82 1-286): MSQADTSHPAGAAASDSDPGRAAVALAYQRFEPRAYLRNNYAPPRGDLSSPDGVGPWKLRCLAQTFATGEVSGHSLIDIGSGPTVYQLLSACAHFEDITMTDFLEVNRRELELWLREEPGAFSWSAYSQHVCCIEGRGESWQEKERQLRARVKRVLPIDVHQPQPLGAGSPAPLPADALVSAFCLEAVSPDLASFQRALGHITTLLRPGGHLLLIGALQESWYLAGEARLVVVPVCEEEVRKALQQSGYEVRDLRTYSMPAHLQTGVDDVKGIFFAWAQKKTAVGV
The experiment in a line: in vitro inhibition of N-methyl transferase (NMT) from rabbit adrenals. It counts as biochemical. As to conditions: from concentration giving 50 percent inhibition, decreasing concentrations from 1 × 10^-4 M, read-out: pI50 (converted). From the text: The compounds of this invention, either in the form of the free base, or as a pharmaceutically-acceptable acid addition salt thereof, are enzyme inhibitors. In particular, as previously stated, they are inhibitors of norephineprine N-methyl transferase [PNMT or phenethanolamine N-methyl transferase - - see Axelrod, J. Bio. Chem., 237, 1657 (1962)]. Compounds which inhibit the conversion of norephineprine to ephineprine are capable of lowering a high ephineprine-norephineprine ratio in mammals, a physiological condition frequently associated with essential hypertension. The compounds of this invention are thus capable of ameliorating the ephineprine-norephineprine imbalance in essential hypertension, an important aspect of the treatment of this disease state. The effectiveness of the compounds as N-methyl transferase inhibitors has been measured in vitro employing NMT from rabbit adrenals. By using a series of decreasing concentration of the inhibiting amine, usually starting with 1 × 10^-4 M continuing with 3 × 10^-5 M, 1 × 10^-5 M, etc., it was possible to determine a concentration at which the 50 percent inhibition of NMT was achieved. The negative reciprocal logarhithm (pI50) of this number was also calculated as a useful index. Table 1, which follows, summarizes the information thus obtained; i.e., the determination of enzyme inhibition activity for the compounds of this invention. […]

For `NC1Cc2ccccc2C1` [2-aminoindane], in the series with catechol amine uptake, the “inhibitor of catechol amine uptake, compared with 1-aminoindane” value was “better inhibitor of catechol amine uptake than 1-aminoindane”.
Usually pKa stands for the pH at which an ionisable group is half protonated. A high value points to a group that holds its proton tightly. As for `NC1CCc2c1cccc2C(F)(F)F` (centres unmarked) [4-trifluoromethyl-1-aminoindane hydrochloride], the IC50 in series [1] is 0.234 µM. The pKa in the series “pKa determination” worked out at 8.58.
As for `NC1CCc2ccc(C(F)(F)F)cc21` (centres unmarked) [6-Trifluoromethyl-1-aminoindane hydrochloride], in series [1], the IC50 is 64.6 µM. This compound also registered a pKa in the series “pKa determination” of 8.52.
